Measured values: patent publication US20210205389A1, “METHODS AND COMPOSITIONS FOR TREATING NON-SMALL CELL LUNG CANCER” (Chang Gung Medical Foundation Keelung Chang Gung Memorial …, priority 2015, published 2021)

Columns and labels:
[1] = test system: CL97 (gefitinib resistance cell line) xenograft; experiment: CL97 xenograft tumor study; type: in vivo, NOD/SCID mice; settings: oral; Gefitinib 100 mg/kg 2 times/week; C1 1 g/kg, C2 600 mg/kg, C3 150 mg/kg 5 days/week; 10 weeks
Description: Human lung cancer cell line CL97 (obtained from Dr. Pan-Chyr Yang's lab, 1 million cells/injection) were subcutaneously injected into the right flank of NOD/SCID mice (female, 4-6 weeks old) and allowed one-two week for tumor growth. […] Over the period of 10 weeks, tumorigenesis in both groups was measured using a caliper on a weekly basis. The change in tumor size was expressed as in fold change and plotted over time.

HUVEC cells = experiment: Tube formation assay; type: cell-based; settings: sorafenib 10 μM (positive control)
Description: Tube formation assay was used to test the inhibitory effect of Composition 3 (400 and 600 μg/ml) in HUVEC cells. Treatment of sorafenib was used as a positive control. […] All samples were assayed in triplicate. Four images were taken per well of a 96-well plate at 10×. The data were quantitated by calculating the pentagonal ring or hexagonal ring loop numbers of each well and used solvent control (DMSO) as 100%.
In addition to the study of the immune modulator role of Composition 3, whether Composition 3 might affect angiogenesis was also studied. To investigate the anti-angiogenesis ability of Composition 3, the effect of Composition 3 on HUVEC cells tube formation was first tested. In the normal condition, HUVEC cells will arrange into pentagon or hexagon shape in matrigel to form a tube.

Row | SMILES | Tumor reduction (%) [1] [%] | number of complete pentagon or hexagon tube (HUVEC cells)
1 | COc1cc2ncnc(Nc3ccc(F)c(Cl)c3)c2cc1OCCCN1CCOCC1 [Gefitinib] | 8.8 | 
2 | CNC(=O)c1cc(Oc2ccc(NC(=O)Nc3ccc(Cl)c(C(F)(F)F)c3)cc2)ccn1 [sorafenib] |  | significant decreased
